Experimental data: patent US20250188033A1, “INHIBITOR OF REPLICATION PROTEIN A1 OF TRYPANOSOMA BRUCEI AND METHOD OF USE THEREOF” (Research Foundation of the City University of New York, published 2025)

System: Trypanosoma brucei
Assay: ALAMARBLUE cell viability / growth assay of T. brucei cells
Type: cell-based
Conditions: T. brucei, 72 hours, normalized to DMSO control; for inhibition at 2 µM / inhibition at 5 µM: Trypanosoma brucei
Method: To determine cell growth rate, WT and two TbRPA1 RNAi KD strains (KD1 and KD2) were seeded at a density of 1×10^5 cells/ml and cultured with or without tetracycline for the induction of RNAi. Cells were counted every 12 hours for 2 days. To determine the viability of TbRPA1-depleted cells, ALAMARBLUE® assay (Thermo Fisher, an established colorimetric technique that detects metabolically active cells) was used. Cells from each time point were incubated with ALAMARBLUE® dye for 4-6 hours and percentage of live cells was determined by measuring resorufin converted from resazurin by reducing environment of live cells. Synergy H1 microplate reader (BioTek) was used with 560/590 nm (excitation/emission) filter settings and Relative Fluorescence Unit (RFU) values were obtained. The percentage of viable cells were calculated from the RFU values.
The initial assessment of JC-229's inhibitory effect on T. brucei cell growth was performed at 50 μM concentration. Trypanosome cells were seeded at 1×10^3 cells/ml density in 180 μl in a 96-well culture plate in triplicate. These cells were incubated with 50 μM JC-229 for 24, 48, and 72 hours. DMSO was used as a vehicle control at 0.0075%. JC-229-treated culture and control cultures were analyzed with the ALAMARBLUE® dye as described above.
To obtain the EC50 value of JC-229, T. brucei cells were seeded at 1×10^3 cells/ml density in 180 μl in a 96-well culture plate in triplicate. These cells were incubated for 72 hours with increasing concentrations of JC-229, (0.5 μM to 50 μM) and cell viability was determined using the ALAMARBLUE® dye as described above.
Trypanosoma brucei cytotoxicity of JC-229 and analogs were measured using ALAMARBLUE® assay (Rampersad, S. N. Multiple applications of ALAMARBLUE® as an indicator of metabolic function and cellular health in cell viability bioassays. Sensors (Basel) 12, 12347-12360 (2012). Trypanosome cells were seeded at 1×10^3 cells/ml density in 180 μl in a 96-well culture plate in triplicate. These cells were incubated with indicated concentration of JC compounds for 72 hours. DMSO was used as a vehicle control at 0.0075%. JC compound-treated cultures were then incubated with ALAMARBLUE® dye for 4-6 hours and percentage of live cells was determined using Synergy H1 microplate reader (BioTek) with 560/590 nm (excitation/emission) filter settings and Relative Fluorescence Unit (RFU) values were obtained. The percentage of viable cells were calculated from the RFU values by normalizing to DMSO treated control. In one embodiment, the inhibitor is characterized in that it provides at least 50%, at least 80% or at least 90% inhibition at a concentration of 5 μM when tested in accordance with the above conditions.

| Structure (SMILES) | % Inhibition @2 μM [%] | % Inhibition @5 μM [%] | % Inhibition @10 μM [%] | inhibition at 2 µM [%] | inhibition at 5 µM [%] |
| --- | --- | --- | --- | --- | --- |
| Cc1ccc(C(=O)Nc2ccc(Cl)c(Cl)c2)cc1S(=O)(=O)C1CCCN(C(=O)OC(C)(C)C)C1 (stereo not drawn) [Jc-950] | 28 | 3 | – | – | – |
| Cc1ccc(C(=O)Nc2ccc(Cl)c(Cl)c2)cc1S(=O)(=O)Nc1ccc(C#N)cc1N [JC-889] | −3 | – | −11 | – | – |
| Cc1ccc(C(=O)Nc2ccc(Cl)c(Cl)c2)cc1S(=O)(=O)Nc1ccc(O)cc1 [JC-912] | −5 | – | 58 | – | – |
| Cc1ccc(C(=O)Nc2ccc(Cl)c(Cl)c2)cc1S(=O)(=O)N1CCC(NS(=O)(=O)c2cccc(F)c2)CC1 [JC-1012] | 36 | 97 | – | – | – |
| Cc1ccc(C(=O)Nc2ccc(Cl)c(Cl)c2)cc1S(=O)(=O)NCCCCCO [JC-897] | 0 | – | 36 | – | – |
| Cc1ccc(C(=O)Nc2ccc(Cl)c(Cl)c2)cc1S(=O)(=O)N1CCCC(NC(=S)Nc2ccccc2F)C1 (stereo not drawn) [JC-1006] | 17 | 101 | – | – | – |
| Cc1ccc(C(=O)Nc2ccc(Cl)c(Cl)c2)cc1S(=O)(=O)NCCc1ccccc1 [JC-854] | −27 | – | 14 | – | – |
| Cc1ccc(C(=O)Nc2ccc(Cl)c(Cl)c2)cc1S(=O)(=O)N1CCC(NS(=O)(=O)c2ccc(CBr)cc2)CC1 [JC-1009] | 99 | 100 | – | – | – |
| Cc1ccc(C(=O)Nc2ccc(Cl)c(Cl)c2)cc1S(=O)(=O)N1CCCC(NC(=S)Nc2ccc(Cl)c(Cl)c2)C1 (stereo not drawn) [JC-1007] | 100 | 101 | – | – | – |
| Cc1ccc(C(=O)Nc2ccc(Cl)c(Cl)c2)cc1S(=O)(=O)NC(Cc1ccccc1)C(N)=O (stereo not drawn) [JC-869] | −34 | – | 30 | – | – |
| Cc1ccc(C(=O)Nc2ccc(Cl)c(Cl)c2)cc1S(=O)(=O)C1CCC(NC(=O)c2ccccc2)CC1 (stereo not drawn) [JC-927] | 0 | 42.4 | 100 | – | – |
| Cc1ccc(C(=O)Nc2ccc(Cl)c(Cl)c2)cc1S(=O)(=O)NCCNC(=S)Nc1cccc(C(F)(F)F)c1 [JC-1000] | 21 | 58 | – | – | – |
| Cc1ccc(C(=O)Nc2ccc(Cl)c(Cl)c2)cc1S(=O)(=O)NCCOCCO [JC-890] | 4 | – | 37 | – | – |
| Cc1ccc(C(=O)Nc2ccc(Cl)c(Cl)c2)cc1S(=O)(=O)NCCNS(=O)(=O)c1ccc(CBr)cc1 [JC-993] | 76 | 100 | – | – | – |
| Cc1ccc(C(=O)Nc2ccc(Cl)c(Cl)c2)cc1S(=O)(=O)C1CCCC(N)C1 (stereo not drawn) [JC-955] | 25 | 100 | – | – | – |
| CC(=O)NCCNS(=O)(=O)c1cc(C(=O)Nc2ccc(Cl)c(Cl)c2)ccc1C [JC-919] | −10 | – | 18 | – | – |
| Cc1ccc(C(=O)Nc2ccc(Cl)c(Cl)c2)cc1S(=O)(=O)NC1CC(NC(=O)OC(C)(C)C)C1 (stereo not drawn) [JC-956] | −32 | 19 | – | – | – |
| Cc1ccc(C(=O)Nc2ccc(Cl)c(Cl)c2)cc1S(=O)(=O)NCCNS(=O)(=O)c1cccc(F)c1 [JC-996] | −19 | 69 | – | – | – |
| Cc1ccc(C(=O)Nc2ccc(Cl)c(Cl)c2)cc1S(=O)(=O)N1CCC(F)(F)CC1 [JC-886] | 3 | 93.7 | 100 | – | – |
| Cc1ccc(C(=O)Nc2ccc(Cl)c(Cl)c2)cc1S(=O)(=O)NCCNS(=O)(=O)c1cc(C(=O)Nc2ccc(Cl)c(Cl)c2)ccc1C [JC-1021] | 0 | −5 | – | – | – |

| Structure (SMILES) | % Inhibition @2 μM [%] | % Inhibition @5 μM [%] | % Inhibition @10 μM [%] | inhibition at 2 µM [%] | inhibition at 5 µM [%] |
| --- | --- | --- | --- | --- | --- |
| Cc1ccc(C(=O)Nc2ccc(Cl)c(Cl)c2)cc1S(=O)(=O)N1CCC(N)CC1.O=C(O)C(F)(F)F [JC-906] | 23 | 100 | 100 | – | – |
| Cc1ccc(C(=O)Nc2ccc(Cl)c(Cl)c2)cc1S(=O)(=O)NNc1ccccc1 [JC-868] | 1 | – | 20 | – | – |
| Cc1ccc2c(NS(=O)(=O)c3cc(C(=O)Nc4ccc(Cl)c(Cl)c4)ccc3C)cccc2n1 [JC-913] | 2 | – | 6 | – | – |
| Cc1ccc(C(=O)NCc2ccccc2)cc1S(=O)(=O)Nc1ccc(Cl)c(Cl)c1 [JC-856] | −7 | – | 22 | – | – |
| O=C(Nc1ccc(Cl)c(Cl)c1)c1ccc(Br)c(S(=O)(=O)Nc2ccc(Cl)c(Cl)c2)c1 [JC-855] | −5 | – | 89 | – | – |
| Cc1ccc(C(=O)NCCc2ccccc2)cc1S(=O)(=O)Nc1ccc(Cl)c(Cl)c1 [JC-859] | 13 | – | 9 | – | – |
| Cc1ccc(C(=O)Nc2ccc(Cl)c(Cl)c2)cc1S(=O)(=O)Nc1cc(C(F)(F)F)n[nH]1 [JC-874] | 1 | 51.8 | 97 | – | – |
| Cc1ccc(C(=O)N[C@@H](Cc2ccccc2)C(N)=O)cc1S(=O)(=O)Nc1ccc(Cl)c(Cl)c1 [JC-862] | −19 | – | 27 | – | – |
| Cc1ccc(C(=O)Nc2ccc(Cl)c(Cl)c2)cc1S(=O)(=O)N1CCCC(NC(=S)Nc2cccc(C(F)(F)F)c2)C1 (stereo not drawn) [JC-1005] | 100 | 100 | – | – | – |
| Cc1ccc(C(=O)Nc2ccc(Cl)c(Cl)c2)cc1S(=O)(=O)NCCNC(=S)Nc1ccccc1F [JC-1001] | 49 | 66 | – | – | – |
| O=C(Nc1ccc(Cl)c(Cl)c1)c1ccc(O)c(S(=O)(=O)Nc2ccc(Cl)c(Cl)c2)c1 [JC-907] | 12 | – | 5 | – | – |
| Cc1ccc(C(=O)Nc2ccc(Cl)c(Cl)c2)cc1S(=O)(=O)C1CCC(N)CC1 (stereo not drawn) [JC-925] | −8 | – | 17 | – | – |
| Cc1ccc(C(=O)Nc2ccc(Cl)c(Cl)c2)cc1S(=O)(=O)Nc1cnc2ccccc2c1 [JC-914] | −7 | – | −3 | – | – |
| Cc1ccc(C(=O)Nc2ccc(Cl)c(Cl)c2)cc1S(=O)(=O)NCCNC(=O)Cc1ccccc1 [JC-953] | −34 | 32 | – | – | – |
| Cc1ccc(C(=O)Nc2ccc(Cl)c(Cl)c2)cc1S(=O)(=O)N1CCC(NC(=S)Nc2ccc(C(F)(F)F)cc2)CC1 [JC-1020] | 100 | 100 | – | – | – |
| Cc1ccc(C(=O)Nc2ccc(Cl)c(Cl)c2)cc1S(=O)(=O)N1CCC(NC(=S)Nc2ccc(F)cc2)CC1 [JC-970] | – | – | – | 100 | 100 |
| Cc1ccc(C(=O)Nc2ccc(Cl)c(Cl)c2)cc1S(=O)(=O)N1CCC(NS(=O)(=O)c2cccc(Br)c2)CC1 [JC-1010] | 9 | −15 | – | – | – |
| Cc1ccc(C(=O)Nc2ccc(Cl)c(Cl)c2)cc1S(=O)(=O)N1CCC(NS(=O)(=O)c2ccc(Br)cc2C(F)(F)F)CC1 [JC-1011] | 63 | 101 | – | – | – |
| Cc1ccc(C(=O)Nc2ccc(Cl)c(Cl)c2)cc1S(=O)(=O)NCCCCO [JC-895] | 10 | – | 45 | – | – |
| Cc1ccc(C(=O)Nc2ccc(Cl)c(Cl)c2)cc1S(=O)(=O)N1CCC[C@@H](N)C1 [JC-963] | – | – | – | 96 | 100 |
